Data from PubChem BioAssay (NCI).
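The concentration for 50% growth inhibition is given as GI50. TGI marks complete inhibition of growth.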

Legend:
Assay in all cases: NCI anticancer screen, dose series, 384-well format
SW-620 colon = test system: SW-620 colon
MOLT-4 leukemia = test system: MOLT-4 leukemia
RXF 393 renal = test system: RXF 393 renal
NCI-H226 lung = test system: NCI-H226 lung
SNB-75 CNS = test system: SNB-75 CNS
DU-145 prostate = test system: DU-145 prostate
KM12 colon = test system: KM12 colon
BT-549 breast = test system: BT-549 breast
SN12C renal = test system: SN12C renal
NCI-H522 lung = test system: NCI-H522 lung
SK-MEL-28 melanoma = test system: SK-MEL-28 melanoma
MALME-3M melanoma = test system: MALME-3M melanoma
HCC-2998 colon = test system: HCC-2998 colon
SF-295 CNS = test system: SF-295 CNS
CCRF-CEM leukemia = test system: CCRF-CEM leukemia
T-47D breast = test system: T-47D breast
HOP-92 NSCLC = test system: HOP-92 NSCLC
SK-MEL-5 melanoma = test system: SK-MEL-5 melanoma
NCI-H23 lung = test system: NCI-H23 lung
RPMI-8226 leukemia = test system: RPMI-8226 leukemia
U251 glioblastoma = test system: U251 glioblastoma
NCI-H460 NSCLC = test system: NCI-H460 NSCLC
HT29 colon = test system: HT29 colon
HCT-116 colon = test system: HCT-116 colon
IGROV1 ovarian = test system: IGROV1 ovarian
SF-268 CNS = test system: SF-268 CNS
786-0 renal = test system: 786-0 renal
MDA-MB-231 breast = test system: MDA-MB-231 breast
SF-539 CNS = test system: SF-539 CNS
MDA-MB-468 breast = test system: MDA-MB-468 breast
UO-31 renal = test system: UO-31 renal
HL-60(TB) leukemia = test system: HL-60(TB) leukemia
M14 melanoma = test system: M14 melanoma
TK-10 renal = test system: TK-10 renal
EKVX NSCLC = test system: EKVX NSCLC
NCI-H322M lung = test system: NCI-H322M lung
UACC-62 melanoma = test system: UACC-62 melanoma
HCT-15 colon = test system: HCT-15 colon
OVCAR-8 ovarian = test system: OVCAR-8 ovarian
SK-OV-3 ovarian = test system: SK-OV-3 ovarian
HOP-62 NSCLC = test system: HOP-62 NSCLC
UACC-257 melanoma = test system: UACC-257 melanoma
NCI/ADR-RES ovarian = test system: NCI/ADR-RES ovarian
K-562 leukemia = test system: K-562 leukemia
PC-3 prostate = test system: PC-3 prostate
SNB-19 CNS = test system: SNB-19 CNS
HS 578T breast = test system: HS 578T breast
MDA-MB-435 melanoma = test system: MDA-MB-435 melanoma
A549 NSCLC = test system: A549 NSCLC
MCF7 breast = test system: MCF7 breast
OVCAR-3 ovarian = test system: OVCAR-3 ovarian
CAKI-1 renal = test system: CAKI-1 renal
COLO 205 colon = test system: COLO 205 colon
SR leukemia = test system: SR leukemia
ACHN renal = test system: ACHN renal
A498 renal = test system: A498 renal
LOX IMVI melanoma = test system: LOX IMVI melanoma
OVCAR-4 ovarian = test system: OVCAR-4 ovarian

With `CS(=O)(=O)N1CCc2c(-c3cnc(N)nc3)nc(N3CCOCC3)nc21` the GI50 (SW-620 colon) was 2640 nM, the TGI (SW-620 colon) was greater than 100000 nM and the GI50 (MOLT-4 leukemia) was 252 nM. The TGI (MOLT-4 leukemia) was 1550 nM, the GI50 (RXF 393 renal) was 1160 nM and the TGI (RXF 393 renal) was 4970 nM. For the same compound, the GI50 (NCI-H226 lung) was 380 nM, the TGI (NCI-H226 lung) was 3940 nM and the GI50 (SNB-75 CNS) was 391 nM. The TGI (SNB-75 CNS) was 3600 nM, the GI50 (DU-145 prostate) was 661 nM and the TGI (DU-145 prostate) was 8570 nM. The GI50 (KM12 colon) was 2230 nM, the TGI (KM12 colon) was greater than 100000 nM and the GI50 (BT-549 breast) was 1050 nM. It also gave a TGI (BT-549 breast) of 5670 nM, a GI50 (SN12C renal) of 433 nM and a TGI (SN12C renal) of 5540 nM. For the same compound, the GI50 (NCI-H522 lung) was 710 nM, the TGI (NCI-H522 lung) was greater than 100000 nM and the GI50 (SK-MEL-28 melanoma) was 673 nM. It also gave a TGI (SK-MEL-28 melanoma) of 8520 nM, a GI50 (MALME-3M melanoma) of 281 nM and a TGI (MALME-3M melanoma) of 2180 nM. It also gave a GI50 (HCC-2998 colon) of 1420 nM, a TGI (HCC-2998 colon) greater than 100000 nM and a GI50 (SF-295 CNS) of 537 nM. For the same compound, the TGI (SF-295 CNS) was 2990 nM, the GI50 (CCRF-CEM leukemia) was 722 nM and the TGI (CCRF-CEM leukemia) was 30400 nM. For the same compound, the GI50 (T-47D breast) was 31.7 nM, the TGI (T-47D breast) was 396 nM and the GI50 (HOP-92 NSCLC) was 248 nM. For the same compound, the TGI (HOP-92 NSCLC) was 2590 nM, the GI50 (SK-MEL-5 melanoma) was 1230 nM and the TGI (SK-MEL-5 melanoma) was 7900 nM. For the same compound, the GI50 (NCI-H23 lung) was 826 nM, the TGI (NCI-H23 lung) was greater than 100000 nM and the GI50 (RPMI-8226 leukemia) was 461 nM. The TGI (RPMI-8226 leukemia) was 2470 nM, the GI50 (U251 glioblastoma) was 2640 nM and the TGI (U251 glioblastoma) was greater than 100000 nM. The GI50 (NCI-H460 NSCLC) was 256 nM, the TGI (NCI-H460 NSCLC) was 31300 nM and the GI50 (HT29 colon) was 334 nM. For the same compound, the TGI (HT29 colon) was greater than 100000 nM, the GI50 (HCT-116 colon) was 1060 nM and the TGI (HCT-116 colon) was greater than 100000 nM. It also gave a GI50 (IGROV1 ovarian) of 123 nM, a TGI (IGROV1 ovarian) of 568 nM and a GI50 (SF-268 CNS) of 1700 nM. For the same compound, the TGI (SF-268 CNS) was greater than 100000 nM, the GI50 ([…]-0 renal) was 1710 nM and the TGI (786-0 renal) was 17800 nM. It also gave a GI50 (MDA-MB-231 breast) of 900 nM, a TGI (MDA-MB-231 breast) greater than 100000 nM and a GI50 (SF-539 CNS) of 1120 nM. The TGI (SF-539 CNS) was 14100 nM, the GI50 (MDA-MB-468 breast) was 391 nM and the TGI (MDA-MB-468 breast) was 2320 nM. The GI50 (UO-31 renal) was 489 nM, the TGI (UO-31 renal) was 7600 nM and the GI50 (HL-60(TB) leukemia) was 192 nM. The TGI (HL-60(TB) leukemia) was greater than 100000 nM, the GI50 (M14 melanoma) was 932 nM and the TGI (M14 melanoma) was greater than 100000 nM. It also gave a GI50 (TK-10 renal) of 421 nM, a TGI (TK-10 renal) of 4970 nM and a GI50 (EKVX NSCLC) of 411 nM. For the same compound, the TGI (EKVX NSCLC) was 3830 nM, the GI50 (NCI-H322M lung) was 426 nM and the TGI (NCI-H322M lung) was 9380 nM. For the same compound, the GI50 (UACC-62 melanoma) was 739 nM, the TGI (UACC-62 melanoma) was 4090 nM and the GI50 (HCT-15 colon) was 445 nM. The TGI (HCT-15 colon) was greater than 100000 nM, the GI50 (OVCAR-8 ovarian) was 1010 nM and the TGI (OVCAR-8 ovarian) was greater than 100000 nM. The GI50 (SK-OV-3 ovarian) was 170 nM, the TGI (SK-OV-3 ovarian) was 1360 nM and the GI50 (HOP-62 NSCLC) was 1340 nM. It also gave a TGI (HOP-62 NSCLC) greater than 100000 nM, a GI50 (UACC-257 melanoma) of 2120 nM and a TGI (UACC-257 melanoma) greater than 100000 nM. It also gave a GI50 (NCI/ADR-RES ovarian) of 2600 nM, a TGI (NCI/ADR-RES ovarian) greater than 100000 nM and a GI50 (K-562 leukemia) of 3650 nM. The TGI (K-562 leukemia) was greater than 100000 nM, the GI50 (PC-3 prostate) was 340 nM and the TGI (PC-3 prostate) was 4450 nM. The GI50 (SNB-19 CNS) was 5410 nM, the TGI (SNB-19 CNS) was greater than 100000 nM and the GI50 (HS 578T breast) was 465 nM. It also gave a TGI (HS 578T breast) of 3000 nM, a GI50 (MDA-MB-435 melanoma) of 1490 nM and a TGI (MDA-MB-435 melanoma) of 94500 nM. For the same compound, the GI50 (A549 NSCLC) was 806 nM, the TGI (A549 NSCLC) was 16900 nM and the GI50 (MCF7 breast) was 47.3 nM. The TGI (MCF7 breast) was greater than 100000 nM, the GI50 (OVCAR-3 ovarian) was 752 nM and the TGI (OVCAR-3 ovarian) was 6660 nM. For the same compound, the GI50 (CAKI-1 renal) was 335 nM, the TGI (CAKI-1 renal) was 3510 nM and the GI50 (COLO 205 colon) was 477 nM. It also gave a TGI (COLO 205 colon) greater than 100000 nM, a GI50 (SR leukemia) of 116 nM and a TGI (SR leukemia) of 551 nM. The GI50 (ACHN renal) was 719 nM, the TGI (ACHN renal) was 15900 nM and the GI50 (A498 renal) was 428 nM. The TGI (A498 renal) was 2730 nM, the GI50 (LOX IMVI melanoma) was 1010 nM and the TGI (LOX IMVI melanoma) was 28400 nM. For the same compound, the GI50 (OVCAR-4 ovarian) was 1650 nM and the TGI (OVCAR-4 ovarian) was 7870 nM.
